# Assay results: patent publication US8372885B2, “Organic compounds and their uses” (Novartis AG, priority 2008, dated 2013)
# Target: T1, P. aeruginosa LpxC (Pseudomonas aeruginosa, UniProt P47205)
# T1 construct: made in house
# T1 sequence (P47205 1-303): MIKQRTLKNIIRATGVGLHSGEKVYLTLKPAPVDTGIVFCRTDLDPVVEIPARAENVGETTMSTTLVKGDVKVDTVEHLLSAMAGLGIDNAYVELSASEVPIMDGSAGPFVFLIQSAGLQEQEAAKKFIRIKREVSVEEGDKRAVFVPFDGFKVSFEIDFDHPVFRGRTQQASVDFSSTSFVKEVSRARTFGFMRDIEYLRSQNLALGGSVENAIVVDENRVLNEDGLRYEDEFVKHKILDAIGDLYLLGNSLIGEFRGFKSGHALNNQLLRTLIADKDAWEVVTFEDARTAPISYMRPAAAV
# Assay: biochemical
# Conditions: 1 nM P. aeruginosa LpxC, 30 min pre-incubation, 2 μM UDP-3-O-(R-3-hydroxydecanoyl)-GlcNAc, pH 7.5, room temperature; read-out: IC50 (LpxC inhibitory activity)
# Description: The LC-MS/MS method for quantitation of LpxC product was developed using an Agilent 1200 Capillary HPLC system coupled to an Applied Biosystems MDS Sciex 4000QTRAP mass spectrometer. Both instruments are controlled using the Applied Biosystems MDS Sciex Analyst software. LpxC reaction product (UDP-3-O—(R-3-hydroxyacyl)-glucosamine) was produced by hydrolysis of LpxC substrate catalyzed by P. a. LpxC and purified using reversed phase chromatography on a Phenomenex Luna C18(2) 4.6×50 mm column. An LpxC product calibration curve was generated to evaluate the sensitivity and dynamic range of the LC-MS/MS method. Briefly, compounds are pre-incubated with 1 nM P. aeruginosa LpxC for 30 min. at room temperature. Reactions are initiated by the addition of 2 μM UDP-3-O—(R-3-hydroxydecanoyl)-GlcNAc. Reactions are conducted in a 96-well plate with a total volume of 100 μL in each well containing 50 mM Sodium phosphate pH 7.5, 0.005% Trition X-100 for 20 min at room temperature. After quenching with 1.8% HOAc (10 μL of a 20% HOAc added to each well), reaction mixtures are analyzed using the LC-MS/MS method and peak areas are transformed into product concentration using a LpxC product calibration curve. […] For IC50 determinations, peak areas are converted to percent inhibition in Microsoft Excel. Percent inhibition values are plotted vs. log compound concentration using XLfit. Data is fit to the four-parameter logistic equation using the non-linear regression algorithm in XLfit to return the IC50 and hill slope values.
row,IC50,Compound
1,380 nM,"CC#CCOC1CCC(C(=O)N[C@H](C(=O)NO)[C@@H](C)N)CC1 (single isomer, unassigned) [Example 7]"
2,13.7 nM,"CC#CCOc1ccc(C(=O)NC(C(=O)NO)C2(N)CC2)cc1 (stereo not shown) [Example 1, N-(1-(1-aminocyclopropyl)-2-(hydroxyamino)-2-oxoethyl)-4-(but-2-ynyloxy)benzamide]"
3,23 nM,"CC(C)(C)C#CCOc1ccc(C(=O)NC(C(=O)NO)C(C)(C)N)cc1 (stereo not shown) [Example 4, N-(3-amino-1-(hydroxyamino)-3-methyl-1-oxobutan-2-yl)-4-(4,4-dimethylpent-2-ynyloxy)benzamide]"
4,183 nM,"CC(C)(O)C#CCOc1ccc(C(=O)NC(C(=O)NO)C(C)(C)N)cc1 (stereo not shown) [Example 8, N-(3-amino-1-(hydroxyamino)-3-methyl-1-oxobutan-2-yl)-4-(4-hydroxy-4-methylpent-2-ynyloxy)benzamide]"
5,74.5 nM,"CC#CCOc1ccc(C(=O)N[C@H](C(=O)NO)[C@@H](C)N)c(F)c1 [Example 9, N-((1S,2R)-2-Amino-1-hydroxycarbamoyl-propyl)-4-but-2-ynyloxy-2-fluoro-benzamide]"
6,2700 nM,"CC#CCOc1ccc(C(=O)N[C@@H](CCCN)C(=O)NO)cc1 [Example 10, N-((S)-4-Amino-1-hydroxycarbamoyl-butyl)-4-but-2-ynyloxy-benzamide]"
7,1 nM,"CC(C)(N)[C@H](NC(=O)c1ccc(OCC#CC2=CCCC2)cc1)C(=O)NO [Example 11, N-((S)-2-Amino-1-hydroxycarbamoyl-2-methyl-propyl)-4-(3-cyclopent-1-enyl-prop-2-ynyloxy)-benzamide]"
8,2 nM,"CC(C)(N)[C@H](NC(=O)c1ccc(OCC#CC2=CCOCC2)cc1)C(=O)NO [Example 12, N-((S)-2-Amino-1-hydroxycarbamoyl-2-methyl-propyl)-4-[3-(3,6-dihydro-2H-pyran-4-yl)-prop-2-ynyloxy]-benzamide]"
9,2 nM,"CC(C)(N)[C@H](NC(=O)c1ccc(OC/C=C/C#CCCO)cc1)C(=O)NO [Example 15, N-((S)-2-Amino-1-hydroxycarbamoyl-2-methyl-propyl)-4-((E)-7-hydroxy-hept-2-en-4-ynyloxy)-benzamide]"
10,1 nM,C[C@@H](N)[C@H](NC(=O)c1ccc(OCC#Cc2ccccc2)cc1)C(=O)NO [Example 17]
11,7.6 nM,C[C@@H](N)[C@H](NC(=O)c1ccc(C#CCOc2ccccc2)cc1)C(=O)NO [Example 18]
12,7.6 nM,CCC#CCOc1ccc(C(=O)N[C@H](C(=O)NO)[C@@H](C)N)cc1 [Example 19]
13,6.5 nM,CC#CCOc1ccc(C(=O)N[C@H](C(=O)NO)C(C)(C)O)cc1 [Example 20]
14,1 nM,CCC#CCOc1ccc(C(=O)NC(C(=O)NO)C(C)(C)N)cc1 (stereo not shown) [Example 21]
15,0.7 nM,CC#CCOc1ccc(-c2ccc(C(=O)N[C@H](C(=O)NO)C(C)(C)N)cc2)cc1 [Example 22]
16,1.5 nM,CCCC#CCOc1ccc(C(=O)N[C@H](C(=O)NO)[C@@H](C)N)cc1 [Example 23]
17,1.4 nM,C#CC(C)(C)Oc1ccc(C(=O)NC(C(=O)NO)C(C)(C)N)cc1 (stereo not shown) [Example 24]
18,35.1 nM,CC#CCCOc1ccc(C(=O)NC(C(=O)NO)C(C)(C)N)cc1 (stereo not shown) [Example 25]
19,73.3 nM,CC#CC(C)(C)Oc1ccc(C(=O)N[C@H](C(=O)NO)[C@@H](C)N)cc1 [Example 27]

row,IC50,Compound
1,55.7 nM,CCCCCC#CCNc1ccc(C(=O)N[C@@H](CN)C(=O)NO)cn1 [Example 28]
2,38.9 nM,C#CCOc1ccc(C(=O)N[C@H](C(=O)NO)[C@@H](C)N)cc1 [Example 29]
3,35.6 nM,C[C@@H](N)[C@H](NC(=O)c1ccc(OCCCC#Cc2ccccc2)cc1)C(=O)NO [Example 30]
4,141 nM,CC#CC(C)Oc1ccc(C(=O)N[C@H](C(=O)NO)[C@@H](C)N)cc1 (stereo partly shown) [Example 31]
5,231 nM,CC#CC(C)Oc1ccc(C(=O)N[C@H](C(=O)NO)[C@@H](C)N)cc1 (stereo partly shown) [Example 32]
6,6 nM,C[C@@H](N)[C@H](NC(=O)c1ccc(OCC#CC2CC2)cc1)C(=O)NO [Example 34]
7,2.6 nM,CC#CCOc1ccc(C(=O)N[C@H](C(=O)NO)C(C)(C)N)cc1F [Example 35]
8,15.9 nM,CC#CCOc1ccc(C(=O)NC(C(=O)NO)C(C)(C)N)c(F)c1F (stereo not shown) [Example 36]
9,4 nM,CCCCOc1ccc(C(=O)N[C@H](C(=O)NO)C(C)(C)N)cc1 [Example 37]
10,0.4 nM,CC(C)(N)[C@H](NC(=O)c1ccc(OCC#CC2CC2)cc1)C(=O)NO [Example 38]
11,151 nM,CC#CCOc1ccc(C(=O)NC(C(=O)NO)C(C)(C)N)cc1OC (stereo not shown) [Example 39]
12,34.6 nM,CC#CCOc1c(Cl)cc(C(=O)NC(C(=O)NO)C(C)(C)N)cc1Cl (stereo not shown) [Example 40]
13,2.1 nM,C=C/C=C/COc1ccc(C(=O)NC(C(=O)NO)C(C)(C)N)cc1 (stereo not shown) [Example 41]
14,27.3 nM,CC#CCNc1ccc(C(=O)N[C@H](C(=O)NO)[C@@H](C)N)cc1 [Example 42]
15,1 nM,C=C(C)C#CCOc1ccc(C(=O)N[C@H](C(=O)NO)C(C)(C)N)cc1 [Example 43]
16,56.9 nM,COCC#CCOc1ccc(C(=O)N[C@H](C(=O)NO)[C@@H](C)N)cc1 [Example 44]
17,2.2 nM,CC(C)(N)C(NC(=O)c1ccc(OCC#CC2CCCC2)cc1)C(=O)NO (stereo not shown) [Example 45]
18,5.5 nM,C#C/C=C/COc1ccc(C(=O)N[C@H](C(=O)NO)[C@@H](C)N)cc1 [Example 46]
19,3.7 nM,CC(C)=CCOc1ccc(C(=O)NC(C(=O)NO)C(C)(C)N)cc1 (stereo not shown) [Example 47]

row,IC50,Compound
1,10.2 nM,CC(C)=CCC/C(C)=C/COc1ccc(C(=O)N[C@H](C(=O)NO)[C@@H](C)N)cc1 [Example 48]
2,24.6 nM,C[C@@H](N)[C@H](NC(=O)c1ccc(OCCC2CC2)cc1)C(=O)NO [Example 49]
3,13.1 nM,C[C@@H](N)[C@H](NC(=O)c1ccc(OCCCC2CC2)cc1)C(=O)NO [Example 50]
4,128 nM,CC#CCOc1ccc(C(=O)N[C@@H](CN)C(=O)NO)cc1 [Example 51]
5,4.4 nM,CC#CCSc1ccc(C(=O)NC(C(=O)NO)C(C)(C)N)cc1 (stereo not shown) [Example 52]
6,5.5 nM,CC(C)C#CCOc1ccc(C(=O)N[C@H](C(=O)NO)C(C)(C)N)cc1 [Example 53]
7,16.7 nM,CC#CCOc1ccc(C(=O)NC(C(=O)NO)C(C)(C)N)cc1C (stereo not shown) [Example 54]
8,9.9 nM,CC#CCOc1ccc(C(=O)NC(C(=O)NO)C(C)(C)N)cc1Cl (stereo not shown) [Example 55]
9,4.1 nM,CC#CCOc1c(F)cc(C(=O)NC(C(=O)NO)C(C)(C)N)cc1F (stereo not shown) [Example 56]
10,30 nM,C/C=C/COc1ccc(C(=O)N[C@H](C(=O)NO)[C@@H](C)N)cc1 [Example 57]
11,6.5 nM,C[C@@H](N)[C@H](NC(=O)c1ccc(OCC#CC2CCC2)cc1)C(=O)NO [Example 58]
12,3.2 nM,CC#CCOc1ccc(C(=O)N[C@H](C(=O)NO)C(C)(C)NC)cc1 [Example 59]
13,8 nM,CC(C)=CC#CCOc1ccc(C(=O)N[C@H](C(=O)NO)[C@@H](C)N)cc1 [Example 60]
14,3 nM,C[C@@H](N)[C@H](NC(=O)c1ccc(OCC#Cc2ccoc2)cc1)C(=O)NO [Example 61]
15,14 nM,CC(C)(N)[C@H](NC(=O)c1ccc(OCC#CC2=CCNCC2)cc1)C(=O)NO [Example 62]
16,0.05 nM,CC(C)(C)C#C/C=C/COc1ccc(C(=O)N[C@H](C(=O)NO)C(C)(C)N)cc1 [Example 63]
17,0.2 nM,CCCCC#C/C=C/COc1ccc(C(=O)N[C@H](C(=O)NO)C(C)(C)N)cc1 [Example 64]
18,1240 nM,Cc1ccc(C#CCOc2ccc(C(=O)N[C@H](C(=O)NO)C(C)(C)N)cc2)cc1 [Example 66]

# Same assay, conditions: IC50 (LpxC inhibitory activity), 1 nM P. aeruginosa LpxC, 30 min pre-incubation, 2 μM UDP-3-O-(R-3-hydroxydecanoyl)-GlcNAc, pH 7.5, room temperature
row,Compound,IC50
1,"CC#CCOc1ccc(C(=O)N[C@H](C(=O)NO)[C@H](N)C2CC2)cc1 [Example 5, N-((1R,2S)-1-amino-1-cyclopropyl-3-(hydroxyamino)-3-oxopropan-2-yl)-4-(but-2-ynyloxy)benzamide]",124 nM
2,"CC#CCOc1ccc(C(=O)N[C@H](C(=O)NO)[C@@H](N)C(F)(F)F)cc1 [Example 6, N-((2S,3R)-3-amino-4,4,4-trifluoro-1-(hydroxyamino)-1-oxobutan-2-yl)-4-(but-2-ynyloxy)benzamide]",13.5 nM
3,CC#CCOc1ccc(C(=O)N[C@H](C(=O)NO)[C@@H](C)N)cc1 [Example 16],8.7 nM
4,CC#CCOc1ccc(C(=O)N[C@@H](C(=O)NO)[C@@H](N)C(C)C)cc1 [Example 26],70 nM
5,CC#CCOc1ccc(C(=O)N[C@H](C(=O)NO)[C@H](N)C(C)C)cc1 [Example 33],268 nM
